Laboratory results taken from PubChem BioAssay (NCI).
“And” between values parts separate entries of the source, which are not always exact repeats. Equal values may be shown once.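 Protocol summary: plate cells (96-well), add compound at 5 concentrations, incubate 48 h, interpolate endpoints linearly. GI50: concentration for 50% inhibition of growth. The concentration for full growth arrest is given as TGI.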

Assays:
Assay in all cases: growth of human tumour cells (NCI), 48 h
A549 NSCLC = tested on: A549 NSCLC
HCC-2998 colon = tested on: HCC-2998 colon
HCT-15 colon = tested on: HCT-15 colon
HOP-62 NSCLC = tested on: HOP-62 NSCLC
HT29 colon = tested on: HT29 colon
LOX IMVI melanoma = tested on: LOX IMVI melanoma
MALME-3M melanoma = tested on: MALME-3M melanoma
OVCAR-4 ovarian = tested on: OVCAR-4 ovarian
OVCAR-5 ovarian = tested on: OVCAR-5 ovarian
SR leukemia = tested on: SR leukemia

Row | SMILES | TGI (A549 NSCLC) | TGI (HCC-2998 colon) | TGI (HCT-15 colon) | TGI (HOP-62 NSCLC) | TGI (HT29 colon) | TGI (LOX IMVI melanoma) | TGI (MALME-3M melanoma) | TGI (OVCAR-4 ovarian) | TGI (OVCAR-5 ovarian) | TGI (SR leukemia) | GI50 (A549 NSCLC) | GI50 (HCC-2998 colon) | GI50 (HCT-15 colon) | GI50 (HOP-62 NSCLC) | GI50 (HT29 colon) | GI50 (LOX IMVI melanoma) | GI50 (MALME-3M melanoma) | GI50 (OVCAR-4 ovarian) | GI50 (OVCAR-5 ovarian) | GI50 (SR leukemia)
1 | C[n+]1cn(CC(=O)c2ccccc2)c(C(N)=O)c1N | > 100 µM | > 100 µM | > 100 µM | > 100 µM | > 100 µM | > 100 µM | > 100 µM | > 100 µM | > 100 µM | > 100 µM |  |  |  |  |  |  |  |  |  | 
2 | O=C1C2C(C(=O)N1Cc1ccccc1)N(Cc1ccccc1)C(=O)N2Cc1ccccc1 (stereo unspecified) | > 100 µM | > 100 µM | > 100 µM | > 100 µM | > 100 µM | > 100 µM | > 100 µM | > 100 µM | > 100 µM | > 100 µM |  |  |  |  |  |  |  |  |  | 
3 | C/C(=N\NC(=S)N1CCC1)c1ccccn1 | 37.5 µM | 26.8 µM | 45.4 µM | > 33.9 µM | 34.5 µM | 15.9 µM | 7.65 µM | > 56.7 µM | 49.9 µM |  | 0.0527 µM | 0.0113 µM | 0.00336 µM | 0.0223 µM | 0.00471 µM | 0.00525 µM | 0.0101 µM | 0.00312 µM | 0.00689 µM | 0.00819 µM
4 | NC(=O)c1nc(-c2c(F)cccc2Cl)oc1Nc1ccc(C(=O)N2CCOCC2)cc1 | > 100 µM | > 100 µM | > 100 µM | > 100 µM | > 100 µM | 5.61 µM | 55.6 µM | > 100 µM | > 100 µM | 84.7 µM | 0.936 µM | 14.8 µM | 2.2 µM | 2.08 µM | 1.62 µM | 0.914 µM | 13 µM | 28.4 µM | 2.31 µM | 1 µM
5 | CCOC(=O)c1cc(C(=O)c2ccc(OC)c(OC)c2)n2c1ccc1ccc3cccnc3c12 | > 100 µM | > 100 µM | > 100 µM | 81.6 µM | 23 µM | > 100 µM | > 100 µM | > 100 µM | > 100 µM | > 100 µM | 5.46 µM | 4.08 µM | 1.25 µM | 3.78 µM | 1.42 µM | 2.6 µM | 1.24 µM | 5.17 µM | 5.32 µM | 0.807 µM
6 | O=c1[nH]c2ccccc2cc1-c1nnc(Cc2ccccc2)o1 | > 100 µM | 27.5 µM | 13.5 µM | 34.3 µM | 12.9 µM | 4.3 µM | 16.2 µM | 18.3 µM |  | 10.9 µM | 15.7 µM | 12.7 µM | 3.3 µM | 12.6 µM | 3.78 µM | 1.75 µM | 3.94 µM | 4.23 µM |  | 2.03 µM
7 | COc1ccc([C@@]23Oc4cc(OC)cc(OC)c4[C@]2(O)[C@H](O)[C@H](C(=O)N(C)C)[C@H]3c2ccccc2)cc1 |  | 0.0615 µM and 0.224 µM |  |  |  | 0.0189 µM and 0.0225 µM |  |  | 0.0626 µM and 0.0694 µM and 0.0417 µM |  |  |  | 0.015 µM | 0.0152 µM |  |  | 0.0142 µM | 0.0149 µM | 0.0116 µM | 0.016 µM
